Legend:
Assay in all cases: MIC of amoxycillin in combination with the compound (synergy)
Format in all cases: cell-based
Conditions in all cases: amoxycillin alone
[1] = system: Staph. aureus Russell
[2] = system: Escherichia coli JT39
[3] = system: Kleb. aerogenes E70

SMILES: CC1(C)S[C@@H]2[C@H](NC(=O)[C@H](N)c3ccc(O)cc3)C(=O)N2[C@H]1C(=O)O [Amoxycillin]
- MIC µg/ml amoxycillin [1]: 500 µg/mL
- MIC µg/ml amoxycillin [2]: 2000 µg/mL
- MIC µg/ml amoxycillin [3]: 1000 µg/mL
